Data reported in the Deep4Chem optical property database.
Several values for one entry are separate records, joined by “and”; a condition that tells them apart may be missing. Identical values can stand only once. Blank lines part the entries; values can stand above or below the compound they belong to.

Experiment: photoluminescence quantum yield (fraction); solvent given as SMILES
[1] = in O=P(c1ccccc1)(c1ccccc1)c1ccccc1Oc1ccccc1P(=O)(c1ccccc1)c1ccccc1

photoluminescence quantum yield (in CO): 0.52
Structure (SMILES): Cc1cc(C)c(B(c2ccsc2-c2sccc2P(=O)(c2ccccc2)c2ccccc2)c2c(C)cc(C)cc2C)c(C)c1

photoluminescence quantum yield (in C1COCCO1): 0.068
photoluminescence quantum yield (in CC#N): 0.011
photoluminescence quantum yield (in CCCCOCCCC): 0.12
photoluminescence quantum yield (in CCOC(C)=O): 0.014
Structure (SMILES): Clc1nc(Cl)nc(Nc2ccc3c4cccc5cccc(c6cccc2c63)c54)n1

photoluminescence quantum yield (in C1CCOC1): 0.057
Structure (SMILES): N#Cc1cc(-n2c3ccccc3c3cc(Br)ccc32)c(-n2c3ccccc3c3cc(Br)ccc32)cc1C#N
photoluminescence quantum yield (in c1ccc2c(c1)c1ccccc1n2-c1ccc(-c2ccc(-n3c4ccccc4c4ccccc43)cc2)cc1): 0.543

photoluminescence quantum yield (in ClCCl): 0.44
Structure (SMILES): CC(C)(C)NC(=O)c1ccc(-c2cc3ccccc3o2)c2ccc3c4ccccc4c4ccccc4c3c12

photoluminescence quantum yield (in ClCCl): 0.54
Structure (SMILES): CN(C)c1ccc(C2=C3C=C(c4ccc(C=O)cc4)S[C@]34c3ccccc3[C@H]2c2ccccc24)cc1

photoluminescence quantum yield (in CCO): 0.27
photoluminescence quantum yield (in O): 0.18
Structure (SMILES): CC/[NH+]=c1\cc2oc3cc(NCCN)c4ccccc4c3nc-2cc1C

photoluminescence quantum yield (in ClCCl): 0.17
Structure (SMILES): Cc1cc(C)c(-c2c3ccccc3c3ccc4cc5c(-c6c(C)cc(C)cc6C)c6ccccc6c6ccc7cc2c3c4c7c56)c(C)c1

photoluminescence quantum yield (in ClCCl): 0.59
Structure (SMILES): CCCCC(CC)Cn1c2cc(C#N)ccc2c2ccc(C#Cc3ccc4ccc5cccc6ccc3c4c56)cc21 (centres undefined)

photoluminescence quantum yield (in ClCCl): 0.8
Structure (SMILES): CCCCC(CC)Cn1c2cc(-c3ccc(N(c4ccccc4)c4ccccc4)cc3)c(C#N)cc2c2cc(C#N)c(-c3ccc(N(c4ccccc4)c4ccccc4)cc3)cc21 (centres undefined)

photoluminescence quantum yield (in C1CCCCC1): 0.65
photoluminescence quantum yield (in C1CCOC1): 0.73
photoluminescence quantum yield (in CC#N): 0.58
photoluminescence quantum yield (in ClC(Cl)Cl): 0.8
photoluminescence quantum yield (in c1ccccc1): 0.89
Structure (SMILES): Cc1cc(C)c(B(c2c(C)cc(C)cc2C)c2cc3ccc4ccccc4c3c3c2ccc2ccccc23)c(C)c1

photoluminescence quantum yield (in ClC(Cl)Cl): 0.678
Structure (SMILES): COc1ccc(C2=Cc3c4ccccc4c4ccccc4[n+]3[B-](F)(F)O2)cc1

photoluminescence quantum yield (in ClCCl): 0.0026
Structure (SMILES): CC(=O)c1c(N[C@@H](Cc2ccccc2)C(=O)O)c2ccc(N(C)C)cc2oc1=O

photoluminescence quantum yield (in ClCCl): 0.04
Structure (SMILES): CCN(CC)c1ccc2c(c1)oc(=O)c1c(=O)oc3cc(C#Cc4ccc(N(C)C)cc4)ccc3c12

photoluminescence quantum yield (in C1CCCCC1): 0.3
photoluminescence quantum yield (in CCCCCO): 0.25
photoluminescence quantum yield (in CCCCO): 0.21
photoluminescence quantum yield (in CCCO): 0.19
photoluminescence quantum yield (in CCO): 0.17
photoluminescence quantum yield (in CO): 0.15
Structure (SMILES): ClC(Cl)=C1c2ccccc2C(C2(Cl)c3ccccc3C(=C(Cl)Cl)c3ccccc32)c2ccccc21 (centres undefined)

photoluminescence quantum yield (in CCCCC(CC)n1c2ccc(-n3c4ccccc4c4ccccc43)cc2c2cc(-n3c4ccccc4c4ccccc43)ccc21): 0.082
photoluminescence quantum yield (in c1cc(-n2c3ccccc3c3ccccc32)cc(-n2c3ccccc3c3ccccc32)c1): 0.116
Structure (SMILES): O=S(=O)(c1cccc(N2c3ccccc3Sc3ccccc32)c1)c1cccc(N2c3ccccc3Sc3ccccc32)c1

photoluminescence quantum yield (in C1CCOC1): 0.16
Structure (SMILES): Cc1cc(C)c([B-]2(c3c(C)cc(C)cc3C)[O+]=P(c3ccccc3)(c3ccccc3)c3cc(-c4ccc(C(C)(C)C)cc4)sc3-c3sc(-c4ccc(C(C)(C)C)cc4)cc32)c(C)c1

Continued, compound first:

Structure (SMILES): Nc1ccc2c(c1)C(=O)NC2=O
photoluminescence quantum yield (in C1CCOC1): 0.7 and 1
photoluminescence quantum yield (in C1COCCO1): 0.73
photoluminescence quantum yield (in CC#N): 0.63
photoluminescence quantum yield (in CC(C)=O): 0.68
photoluminescence quantum yield (in CCO): 0.21
photoluminescence quantum yield (in CN(C)C=O): 0.91
photoluminescence quantum yield (in ClCCl): 0.76

Structure (SMILES): Cc1ccc(C)n1-c1cccc(C#N)c1
photoluminescence quantum yield (in C1CCOC1): 0.006
photoluminescence quantum yield (in CCCCCC): 0.004
photoluminescence quantum yield (in CCCCCl): 0.004
photoluminescence quantum yield (in CCOCC): 0.006
photoluminescence quantum yield (in ClCCl): 0.003

Structure (SMILES): N#Cc1cc(C#N)c(-n2c3ccccc3c3cc(-c4cccc5c4c4ccccc4n5-c4cc(-n5c6ccccc6c6ccccc65)c(C#N)cc4C#N)ccc32)cc1-n1c2ccccc2c2ccccc21
photoluminescence quantum yield [1]: 0.66

Structure (SMILES): CC(=O)c1ccc(NC(=O)c2ccc(N(C)C)cc2)cc1
photoluminescence quantum yield (in C1CCCCC1): 0.0006
photoluminescence quantum yield (in C1CCOC1): 0.0158
photoluminescence quantum yield (in CC#N): 0.0017
photoluminescence quantum yield (in CCOCC): 0.001

Structure (SMILES): CC(=O)N(Cc1ccccn1)c1c2ccccc2c2c3c(cccc13)C(=O)N(Cc1ccccn1)C2=O
photoluminescence quantum yield (in C1CCOC1): 0.36
photoluminescence quantum yield (in CCCCCC): 0.59
photoluminescence quantum yield (in CCO): 0.35
photoluminescence quantum yield (in Cc1ccccc1): 0.52
photoluminescence quantum yield (in ClCCl): 0.48

Structure (SMILES): N#Cc1ccc(-c2ccc3c(c2)c2cc(-c4ccc(C#N)cc4)ccc2c2c3nc(-c3ccc(-c4ccc(N(c5ccccc5)c5ccccc5)cc4)cc3)n2-c2ccccc2)cc1
photoluminescence quantum yield (in C1CCOC1): 0.54
photoluminescence quantum yield (in CC#N): 0.51
photoluminescence quantum yield (in CCCCCC): 0.82
photoluminescence quantum yield (in CCOCC): 0.9

Structure (SMILES): CN(C)c1ccc(/C=C/c2ccccn2)cc1
photoluminescence quantum yield (in C1CCCCC1): 0.017
photoluminescence quantum yield (in C1CCOC1): 0.042
photoluminescence quantum yield (in C1COCCO1): 0.031
photoluminescence quantum yield (in CC#N): 0.048
photoluminescence quantum yield (in CC(C)O): 0.024
photoluminescence quantum yield (in CCCCCC): 0.016
photoluminescence quantum yield (in CCCCCCC): 0.017
photoluminescence quantum yield (in CCCCO): 0.026
photoluminescence quantum yield (in CCO): 0.032
photoluminescence quantum yield (in CCOC(C)=O): 0.03
photoluminescence quantum yield (in CCOCC): 0.022
photoluminescence quantum yield (in CN(C)C=O): 0.051
photoluminescence quantum yield (in CO): 0.019
photoluminescence quantum yield (in CS(C)=O): 0.054
photoluminescence quantum yield (in O): 0.015

Structure (SMILES): COc1ccc(/C=C/C2=CC(/C=C/c3ccc(OC)cc3)=[O+][B-](OC(C)=O)(OC(C)=O)O2)cc1
photoluminescence quantum yield (in C1CCOC1): 0.95
photoluminescence quantum yield (in CC#N): 0.85
photoluminescence quantum yield (in CC(C)=O): 0.88
photoluminescence quantum yield (in CS(C)=O): 0.83
photoluminescence quantum yield (in Cc1ccccc1): 0.98
photoluminescence quantum yield (in ClC(Cl)Cl): 0.91
photoluminescence quantum yield (in ClCCl): 0.92

Structure (SMILES): Cc1cc2c(o1)c(C)cc1ccc(=O)oc12
photoluminescence quantum yield (in C1CCCCC1): 0.0001
photoluminescence quantum yield (in C1COCCO1): 0.0001
photoluminescence quantum yield (in CC#N): 0.001
photoluminescence quantum yield (in CCO): 0.007
photoluminescence quantum yield (in OCC(F)(F)F): 0.03

Structure (SMILES): Cc1cc(C)c(C2=C3C=C(/C=C/C(=O)OCc4ccccc4)C=[N+]3[B-](F)(F)n3cc(/C=C/C(=O)OCc4ccccc4)cc32)c(C)c1
photoluminescence quantum yield (in ClCCl): 0.35

Structure (SMILES): N#Cc1cc2nc3c(nc2cc1C#N)C1c2ccc(N(c4ccccc4)c4ccccc4)cc2C3c2ccc(N(c3ccccc3)c3ccccc3)cc21
photoluminescence quantum yield (in C1CCCCC1): 0.44
photoluminescence quantum yield (in CC#N): 0.01
photoluminescence quantum yield (in Cc1ccccc1): 0.35
photoluminescence quantum yield (in ClCCl): 0.02

Structure (SMILES): COc1ccc(/N=N/c2c(O)c3ccccc3n(C)c2=O)c(S(=O)(=O)O)c1
photoluminescence quantum yield (in CS(C)=O): 0.03

Structure (SMILES): COc1cc(C2=C(c3cc(OC)c(OC)c(OC)c3)C(c3ccc(C(C)(C)C)cc3)=[N+]3C2=Nc2c(-c4cc(OC)c(OC)c(OC)c4)c(-c4cc(OC)c(OC)c(OC)c4)c(-c4ccc(C(C)(C)C)cc4)n2[B-]3(F)F)cc(OC)c1OC
photoluminescence quantum yield (in Cc1ccccc1): 0.001

Structure (SMILES): Cc1nc2c(cc3c4c(cccc42)C(=O)OC3=O)o1
photoluminescence quantum yield (in CCO): 0.073

Structure (SMILES): CCCCNC(=O)c1nc2c(N(C)C)nc(N(C)C)nc2n1Cc1ccccc1
photoluminescence quantum yield (in C1COCCO1): 0.95
photoluminescence quantum yield (in CC#N): 0.95
photoluminescence quantum yield (in CO): 0.89
photoluminescence quantum yield (in ClCCl): 0.87

Structure (SMILES): O=C1/C(=C2\Sc3ccccc3C2=O)Sc2ccccc21
photoluminescence quantum yield (in C1COCCO1): 0.54
photoluminescence quantum yield (in CN(C)C=O): 0.353
photoluminescence quantum yield (in CO): 0.035
photoluminescence quantum yield (in CS(C)=O): 0.013
photoluminescence quantum yield (in c1ccccc1): 0.72

Structure (SMILES): C[Si]1(C)c2ccccc2-c2ccccc21
photoluminescence quantum yield (in ClCCl): 0.14

Structure (SMILES): O=C1c2cccc3cc4ccccc4c(c23)C(=O)N1Cc1ccccn1
photoluminescence quantum yield (in C1CCOC1): 0.83
photoluminescence quantum yield (in CCCCCC): 0.61
photoluminescence quantum yield (in CCO): 0.91
photoluminescence quantum yield (in Cc1ccccc1): 0.69
photoluminescence quantum yield (in ClCCl): 0.93

Structure (SMILES): N#CC1=C(c2ccc(-c3cccs3)s2)CC1
photoluminescence quantum yield (in CCO): 0.18

Structure (SMILES): c1ccc(-c2nc(-c3ccccc3)nc(-c3ccc(-n4c5ccccc5c5cc6c(cc54)C4c5ccccc5C6c5ccccc54)cc3)n2)cc1
photoluminescence quantum yield (in Cc1ccccc1): 0.77
photoluminescence quantum yield [1]: 0.4

Structure (SMILES): F[B-]1(F)Oc2c(-c3cccc4c3O[B-](F)(F)[n+]3c(-c5ccccc5)c(-c5ccccc5)n(-c5ccc(C(F)(F)F)cc5)c3-4)cccc2-c2n(-c3ccc(C(F)(F)F)cc3)c(-c3ccccc3)c(-c3ccccc3)[n+]21
photoluminescence quantum yield (in C1CCOC1): 0.68

Structure (SMILES): C(#Cc1ncc(-c2ccccc2)o1)c1cccnc1
photoluminescence quantum yield (in ClCCl): 0.13

Structure (SMILES): CC(C)[Si](C#Cc1c2ccccc2c(C#Cc2c3ccccc3c(C#Cc3c4ccccc4c(C#Cc4c5ccccc5c(C#Cc5c6ccccc6c(C#C[Si](C(C)C)(C(C)C)C(C)C)c6ccccc56)c5ccccc45)c4ccccc34)c3ccccc23)c2ccccc12)(C(C)C)C(C)C
photoluminescence quantum yield (in Cc1ccccc1): 0.018

Structure (SMILES): FC(F)(F)C(F)(F)C(F)(F)c1nc2c(-c3ccsc3)cc3c4cc(-c5ccsc5)c5nc(C(F)(F)C(F)(F)C(F)(F)F)nc6c(-c7ccsc7)cc(c7cc(-c8ccsc8)c(n1)c2c37)c4c56
photoluminescence quantum yield (in C1CCOC1): 0.62

Structure (SMILES): Cc1ccc(-c2nc(-c3ccc(O)cc3)[nH]c2-c2ccc(C)cc2)cc1
photoluminescence quantum yield (in CO): 0.2

Structure (SMILES): FC(F)(F)C(F)(F)C(F)(F)C1=NC2=C(c3ccccc3)C=C3c4cc(-c5ccccc5)c5nc(C(F)(F)C(F)(F)C(F)(F)F)nc6c(-c7ccccc7)cc(c4c56)=C4C=C(c5ccccc5)C(=N1)C2C34 (centres undefined)
photoluminescence quantum yield (in C1CCOC1): 0.85

Structure (SMILES): CC(C)(C)c1ccc2c(c1)sc1[n+]2[B-](F)(F)n2c(c3cccc4cccc2c43)=N1
photoluminescence quantum yield (in C1CCOC1): 0.85
photoluminescence quantum yield (in CC#N): 0.93
photoluminescence quantum yield (in CCCCCC): 0.87
photoluminescence quantum yield (in Cc1ccccc1): 0.86
photoluminescence quantum yield (in ClCCl): 0.86

Structure (SMILES): COc1cc(OC)c2c(c1)C(=O)c1ccc(OC)cc1-2
photoluminescence quantum yield (in C1CCCCC1): 0.0095
photoluminescence quantum yield (in CC#N): 0.0012
photoluminescence quantum yield (in CCO): 0

Structure (SMILES): Cc1ccc(-c2c3ccc([nH]3)c3nc(c(-c4ccc(C#N)cc4)c4ccc([nH]4)c4ccc([nH]4)c(-c4ccc(C)cc4)c4ccc2o4)C=C3)cc1
photoluminescence quantum yield (in C1CCOC1): 0.179
photoluminescence quantum yield (in Cc1ccccc1): 0.166
photoluminescence quantum yield (in c1ccccc1): 0.175

Structure (SMILES): Cc1ccc(-c2cc(-c3ccccc3)c3c(N)nc(N4CCCC4)c(C#N)c3n2)cc1
photoluminescence quantum yield (in CC#N): 0.046
photoluminescence quantum yield (in c1ccccc1): 0.073
